# Source: PMC8074941, “Synthesis of cyclotetrapeptide analogues of c-PLAI and evaluation of their antimicrobial properties” (Royal Society Open Science, 2021)
# Where a SMILES comes first, the peptide text is derived from it.
# Legend:
# [1] = system: C. albicans ATCC 10231; conditions: ATCC 10231, 18 h
# Experimental: (§1) Tools and materials were sterilized in an autoclave for 15 min at 121°C. Fungal culture was grown in agar media (Potato Dextrose agar) by picking some fungal colony using an inoculating loop, followed by incubation at 30°C for 24–48 h. Fungal culture was then suspended in liquid media (Potato Dextrose Broth). The suspended fungal culture was then incubated for 24–48 h at 30°C. The suspended fungal culture was then incubated at 30°C for 24 h and standardized equal to 0.5 Mc Farland (2 × 10^8 CFU ml^−1). The culture was diluted into the concentration of 5 × 10^5 CFU ml^−1.
# (§2) Six tetrapeptides and six cyclotetrapeptides were dissolved in DMSO 2% with a concentration of 1 µg mL^−1. Each solution was dissolved gradually. Subsequently, 12 sample solutions, ciprofloxacin, nystatin, ketoconazole and DMSO 2% were incubated on a 96-well microplate at 37°C for 18 h. The result was interpreted using a spectrophotometer, with a wavelength of 600 nm. MIC was measured as the percentage of microbial inhibition and cell death.
# [2] = system: Escherichia coli; conditions: c-PLAI isolated from marine Pseudomonas sp.; cited from earlier work
# Excerpt: (§3) c-PLAI [cyclo(pro-leu-ala-ile)] is a cyclotetrapeptide that was isolated by Rungprom and co-workers in 2008 from marine Pseudomonas sp., which was associated with the Japanese seaweed Diginea sp.. All the amino acid residues of c-PLAI were reported to be L-configured. […] Later, c-PLAI was successfully synthesized using a convergent solution-phase method. ...
# [3] = system: Bacillus subtilis; conditions: c-PLAI isolated from marine Pseudomonas sp.; cited from earlier work
# Excerpt: as §3
# [4] = system: Microsporum andouinii; conditions: synthetic product of solution-phase synthesis; strain not given; cited from earlier work
# Excerpt: as §3
# [5] = system: Micrococcus luteus; conditions: c-PLAI isolated from marine Pseudomonas sp.; cited from earlier work
# Excerpt: as §3
# [6] = system: Vibrio anguillarum; conditions: c-PLAI isolated from marine Pseudomonas sp.; cited from earlier work
# Excerpt: as §3
# [7] = system: Staphylococcus aureus; conditions: c-PLAI isolated from marine Pseudomonas sp.; cited from earlier work
# Excerpt: as §3
# [8] = system: K. pneumonia ATCC 2357; test: microbe, parasite or virus in culture; conditions: ATCC 2357, 18 h
# Experimental: as §1, with “Bacterial” for “Fungal”, “(Mueller Hinton” for “(Potato Dextrose”, “bacterial” for “fungal”, “37°C” for “30°C”, “24” for “24–48”, “bacterial” for “fungal culture was then incubated for 24–48 h at 30°C. The suspended fungal”
# as §2
# [9] = system: E. coli ATCC 11229; test: microbe, parasite or virus in culture; conditions: ATCC 11229, 18 h
# Experimental: as §1, with “Bacterial” for “Fungal”, “(Mueller Hinton” for “(Potato Dextrose”, “bacterial” for “fungal”, “37°C” for “30°C”, “24” for “24–48”, “bacterial” for “fungal culture was then incubated for 24–48 h at 30°C. The suspended fungal”
# as §2
# [10] = system: S. aureus ATCC 6538; test: microbe, parasite or virus in culture; conditions: ATCC 6538, 18 h
# Experimental: as §1, with “Bacterial” for “Fungal”, “(Mueller Hinton” for “(Potato Dextrose”, “bacterial” for “fungal”, “37°C” for “30°C”, “24” for “24–48”, “bacterial” for “fungal culture was then incubated for 24–48 h at 30°C. The suspended fungal”
# as §2
# [11] = system: B. cereus ATCC 11778; test: microbe, parasite or virus in culture; conditions: ATCC 11778, 18 h
# Experimental: as §1, with “Bacterial” for “Fungal”, “(Mueller Hinton” for “(Potato Dextrose”, “bacterial” for “fungal”, “37°C” for “30°C”, “24” for “24–48”, “bacterial” for “fungal culture was then incubated for 24–48 h at 30°C. The suspended fungal”
# as §2
# [12] = system: T. mentagrophyte; test: microbe, parasite or virus in culture; conditions: 18 h
# Experimental: as §1, §2
# [13] = system: Trichophyton mentagrophytes; conditions: synthetic product of solution-phase synthesis; strain not given; cited from earlier work
# Experimental: as §3, with “... || The antimicrobial properties of all linear and cyclic tetrapeptides were evaluated (table 3). […] The lack of information regarding the microbial strains used in the previous report led us to the assumption that the use of different strains in the assay could lead to a differen ...” for “...”
# [14] = system: Klebsiella pneumoniae; conditions: synthetic product of solution-phase synthesis; strain not given; cited from earlier work
# Experimental: as §3, with “... || The antimicrobial properties of all linear and cyclic tetrapeptides were evaluated (table 3). […] The lack of information regarding the microbial strains used in the previous report led us to the assumption that the use of different strains in the assay could lead to a differen ...” for “...”
# [15] = system: Candida albicans; conditions: synthetic product of solution-phase synthesis; strain not given; cited from earlier work
# Experimental: as §3, with “... || The antimicrobial properties of all linear and cyclic tetrapeptides were evaluated (table 3). […] The lack of information regarding the microbial strains used in the previous report led us to the assumption that the use of different strains in the assay could lead to a differen ...” for “...”
# [16] = system: Pseudomonas aeruginosa; conditions: synthetic product of solution-phase synthesis; strain not given; cited from earlier work
# Experimental: as §3, with “... || The antimicrobial properties of all linear and cyclic tetrapeptides were evaluated (table 3). […] The lack of information regarding the microbial strains used in the previous report led us to the assumption that the use of different strains in the assay could lead to a differen ...” for “...”
smiles,measurement,setting,value
"CC[C@H](C)[C@@H]1NC(=O)[C@H](C)NC(=O)[C@H](CC(C)C)NC(=O)[C@@H]2CCCN2C1=O [c-PLAI, cyclo(pro-leu-ala-ile)] (cyclo(PLAI))",minimum inhibitory concentration (MIC) C. albicans ATCC 10231,[1],>1000 µg/mL
same,antibacterial activity against Escherichia coli,[2],inactive
same,antibacterial activity against Bacillus subtilis,[3],inactive
same,minimum inhibitory concentration (MIC) Microsporum andouinii,[4],6 µg/mL
same,antibacterial activity against Micrococcus luteus,[5],inactive
same,antibacterial activity against Vibrio anguillarum,[6],inactive
same,antibacterial activity against Staphylococcus aureus,[7],inactive
same,minimum inhibitory concentration (MIC) K. pneumonia ATCC 2357,[8],500 µg/mL
same,minimum inhibitory concentration (MIC) E. coli ATCC 11229,[9],250 µg/mL
same,minimum inhibitory concentration (MIC) S. aureus ATCC 6538,[10],>1000 µg/mL
same,minimum inhibitory concentration (MIC) B. cereus ATCC 11778,[11],125 µg/mL
same,minimum inhibitory concentration (MIC) T. mentagrophyte,[12],125 µg/mL
same,minimum inhibitory concentration (MIC) Trichophyton mentagrophytes,[13],6 µg/mL
same,minimum inhibitory concentration (MIC) Klebsiella pneumoniae,[14],6 µg/mL
same,minimum inhibitory concentration (MIC) Candida albicans,[15],6 µg/mL
same,minimum inhibitory concentration (MIC) Pseudomonas aeruginosa,[16],6 µg/mL
